Results published in US20220249347A1, “Composition and Method Containing Pea and Quinoa Natural Peptides And Niacinamide to Enhance Skin Glow, Radiance And Even Skin Tone” (TRI-K Industries, Inc., priority 2021, published 2022).

Test system: RHE-MEL 3D in vitro Caucasian skin model
Assay: Skin pigmentation (ITA°) on melanized reconstructed human epidermis 3D model RHE-MEL
Format: cell-based
Conditions: 14 days study, treated daily for 10 days; Skin Care Composition at 1%, niacinamide at same use level; versus untreated
Protocol: The protocol for this study including the following. A melanized reconstructed human epidermis 3D Model (RHE-MEL) (in vitro Caucasian skin model) was used. The study duration was for 14 days. The RHE-MEL 3D in vitro skin tissues were allowed to grow in the first 4 days. The 3D skin tissues were treated every day with the materials for 10 days. The following samples were used: Untreated sample, Benchmark Niacinamide (at same use level as in Skin Care Composition), and Skin Care Composition used at 1%. Concentrations of materials were predetermined based on screening MTT assay. A C-Cube Dermoscope® (a high quality magnifying lens and a powerful lighting system used to evaluate pigmented skin lesions, and can diagnose melanoma), was used coupled with C-Cube clinical software for image analysis. Skin pigmentation was analyzed via high resolution pictures obtained from the C-Cube Dermoscope® coupled with an image analysis software. ITA° parameter was measured as degree of pigmentation of the skin directly on in vitro 3D RHE-MEL skin model. Statistical analysis was done using the Student T-test with a confidence level of (p<0.05).
In this 3D RHE-MEL in vitro Caucasian model skin measured was the intensity of the skin pigmentation degree by ITA° parameter (individual typological angle). […]

NC(=O)c1cccnc1 [Niacinamide]
ITA° (individual typology angle), degree of skin pigmentation: increased the ITA°
